From ChEMBL document CHEMBL1151440, “Safety and pharmacokinetics of GSK364735, a human immunodeficiency virus type 1 integrase inhibitor, following single and repeated administration in healthy adult subjects” (Antimicrob Agents Chemother, 2007)
pIC50: −log10 of the molar value.

Tests used:
[1] = Terminal elimination half life in human at 400 mg administered with fat meal daily for 8 days measured on day 1; assay type: ADME, organism-based; conditions: in vivo, read-out: beta t1/2 (converted)
[2] = system: Human immunodeficiency virus 1; assay: Antiviral activity against HIV1 BaL in peripheral blood lymphocytes; assay type: functional, organism-based; conditions: Human immunodeficiency virus 1, BaL
[3] = system: Human immunodeficiency virus 1; assay: Antiviral activity against HIV1 BaL in peripheral blood lymphocytes in presence of 100% human serum; assay type: functional, organism-based; conditions: Human immunodeficiency virus 1, BaL
[4] = Terminal elimination half life in iv dosed dog; assay type: ADME, organism-based, Canis lupus familiaris; conditions: in vivo, read-out: beta t1/2 (converted)
[5] = Oral bioavailability in dog; assay type: ADME, organism-based, Canis lupus familiaris; conditions: in vivo
[6] = Plasma concentration in human at 100 mg administered with fat meal every 12 hrs for 8 days measured on day 1 after 12 hrs of first dose; assay type: ADME, organism-based
[7] = Plasma concentration in human at 200 mg administered with fat meal every 12 hrs for 8 days measured on day 1 after 12 hrs of first dose; assay type: ADME, organism-based
[8] = Plasma concentration in human at 400 mg administered with fat meal every 12 hrs for 8 days measured on day 1 after 12 hrs of first dose; assay type: ADME, organism-based
[9] = Plasma concentration in human at 200 mg administered with fat meal every 8 hrs for 8 days measured on day 1 after 12 hrs of first dose; assay type: ADME, organism-based
[10] = Apparent oral clearance in human at 50 mg administered with fat meal every 12 hrs for 8 days measured on day 1; assay type: ADME, organism-based; conditions: in vivo
[11] = Apparent oral clearance in human at 100 mg administered with fat meal every 12 hrs for 8 days measured on day 1; assay type: ADME, organism-based; conditions: in vivo
[12] = Apparent oral clearance in human at 200 mg administered with fat meal every 12 hrs for 8 days measured on day 1; assay type: ADME, organism-based; conditions: in vivo
[13] = Apparent oral clearance in human at 400 mg administered with fat meal daily for 8 days measured on day 1; assay type: ADME, organism-based; conditions: in vivo
[14] = AUC (0 to 12 hrs) in human at 50 mg administered with fat meal every 12 hrs for 8 days measured on day 8; assay type: ADME, organism-based; design: dose 50 mg, time < 12 hr; conditions: plasma
[15] = AUC (0 to 12 hrs) in human at 200 mg administered with fat meal every 12 hrs for 8 days measured on day 8; assay type: ADME, organism-based; design: dose 200 mg, time < 12 hr; conditions: plasma
[16] = AUC (0 to 8 hrs) in human at 200 mg administered with fat meal every 8 hrs for 8 days measured on day 8; assay type: ADME, organism-based; design: time < 8 hr, dose 200 mg; conditions: plasma
[17] = Cmax in human at 100 mg administered with fat meal every 12 hrs for 8 days measured on day 8; assay type: ADME, organism-based; design: dose 100 mg; conditions: in vivo
[18] = Tmax in human at 100 mg administered with fat meal every 12 hrs for 8 days measured on day 8; assay type: ADME, organism-based; conditions: in vivo
[19] = Tmax in human at 200 mg administered with fat meal every 8 hrs for 8 days measured on day 8; assay type: ADME, organism-based; conditions: in vivo
[20] = Terminal elimination half life in human at 50 mg administered with fat meal every 12 hrs for 8 days measured on day 8; assay type: ADME, organism-based; conditions: in vivo, read-out: beta t1/2 (converted)
[21] = Terminal elimination half life in human at 400 mg administered with fat meal daily for 8 days measured on day 8; assay type: ADME, organism-based; conditions: in vivo, read-out: beta t1/2 (converted)
[22] = Terminal elimination half life in human at 200 mg administered with fat meal every 8 hrs for 8 days measured on day 8; assay type: ADME, organism-based; conditions: in vivo, read-out: beta t1/2 (converted)
[23] = Oral bioavailability in monkey; assay type: ADME, organism-based, Macaca mulatta; conditions: rhesus monkey, in vivo
Homo sapiens [24] = assay: Toxicity in human assessed as headache at 50 to 200 mg administered as single dose; assay type: organism-based; conditions: in vivo
Homo sapiens [25] = assay: Toxicity in human assessed as diarrhea at 50 to 200 mg administered as single dose; assay type: organism-based; conditions: in vivo
Homo sapiens [26] = assay: Toxicity in human assessed as changes in hematology at 50 to 200 mg administered as single dose; assay type: organism-based; conditions: in vivo
Homo sapiens [27] = assay: Toxicity in human assessed as changes in vital signs at 50 to 200 mg administered as single dose; assay type: organism-based; conditions: in vivo
Homo sapiens [28] = assay: Toxicity in human assessed as changes in continuous telemetry monitoring at 50 to 200 mg administered as single dose; assay type: organism-based; conditions: in vivo
Homo sapiens [29] = assay: Toxicity in human assessed as headache at 50 mg administered every 12 hrs for 8 days; assay type: organism-based; conditions: in vivo
Homo sapiens [30] = assay: Toxicity in human assessed as dizziness at 50 mg administered every 12 hrs for 8 days; assay type: organism-based; conditions: in vivo
Homo sapiens [31] = assay: Toxicity in human assessed as adverse effect at 100 mg administered every 12 hrs for 8 days; assay type: organism-based; conditions: in vivo
Homo sapiens [32] = assay: Toxicity in human assessed as dizziness at 100 mg administered every 12 hrs for 8 days; assay type: organism-based; conditions: in vivo
Homo sapiens [33] = assay: Toxicity in human assessed as headache at 200 mg administered every 12 hrs for 8 days; assay type: organism-based; conditions: in vivo
Homo sapiens [34] = species: Homo sapiens; assay: Toxicity in human assessed as adverse effect at 400 mg daily for 8 days; assay type: organism-based; conditions: in vivo, 192 h
Homo sapiens [35] = species: Homo sapiens; assay: Toxicity in human assessed as headache at 400 mg daily for 8 days; assay type: organism-based; conditions: in vivo, 192 h
Homo sapiens [36] = species: Homo sapiens; assay: Toxicity in human assessed as dizziness at 400 mg daily for 8 days; assay type: organism-based; conditions: in vivo, 192 h
Homo sapiens [37] = assay: Toxicity in human assessed as adverse effect at 200 mg administered every 8 hrs for 8 days; assay type: organism-based; conditions: in vivo
Homo sapiens [38] = assay: Toxicity in human assessed as dizziness at 200 mg administered every 8 hrs for 8 days; assay type: organism-based; conditions: in vivo
Homo sapiens [39] = assay: Toxicity in human assessed as changes in 12-lead ECG at 50 to 400 mg after sequential repeated administration for 8 days; assay type: organism-based; conditions: in vivo, 192 h
[40] = AUC (0 to infinity) in fasted human at 50 mg administered as single dose; assay type: ADME, organism-based; design: dose 50 mg, time infinity; conditions: plasma
[41] = AUC (0 to infinity) in fasted human at 100 mg administered as single dose; assay type: ADME, organism-based; design: dose 100 mg, time infinity; conditions: plasma
[42] = Cmax in fasted human at 50 mg administered as single dose; assay type: ADME, organism-based; design: dose 50 mg; conditions: in vivo
[43] = Apparent oral clearance in human at 400 mg administered with fat meal daily for 8 days measured on day 8; assay type: ADME, organism-based; conditions: in vivo
[44] = Cmax in fasted human at 400 mg administered as single dose; assay type: ADME, organism-based; design: dose 400 mg; conditions: in vivo
[45] = Cmax in human at 200 mg administered with fat meal as single dose; assay type: ADME, organism-based; design: dose 200 mg; conditions: in vivo
[46] = Tmax in fasted human at 50 mg administered as single dose; assay type: ADME, organism-based; conditions: in vivo
[47] = Tmax in fasted human at 100 mg administered as single dose; assay type: ADME, organism-based; conditions: in vivo
[48] = Terminal elimination half life in fasted human at 50 mg administered as single dose; assay type: ADME, organism-based; conditions: in vivo, read-out: beta t1/2 (converted)
[49] = Terminal elimination half life in fasted human at 100 mg administered as single dose; assay type: ADME, organism-based; conditions: in vivo, read-out: beta t1/2 (converted)
[50] = Apparent oral clearance in fasted human at 100 mg administered as single dose; assay type: ADME, organism-based; conditions: in vivo
[51] = Apparent oral clearance in human at 400 mg administered with fat meal as single dose; assay type: ADME, organism-based; conditions: in vivo
[52] = Cmax in human at 50 mg administered with fat meal every 12 hrs for 8 days measured on day 1; assay type: ADME, organism-based; design: dose 50 mg; conditions: in vivo
[53] = Tmax in human at 200 mg administered with fat meal every 12 hrs for 8 days measured on day 1; assay type: ADME, organism-based; conditions: in vivo
[54] = Tmax in human at 200 mg administered with fat meal every 8 hrs for 8 days measured on day 1; assay type: ADME, organism-based; conditions: in vivo
[55] = Terminal elimination half life in human at 50 mg administered with fat meal every 12 hrs for 8 days measured on day 1; assay type: ADME, organism-based; conditions: in vivo, read-out: beta t1/2 (converted)
[56] = Terminal elimination half life in human at 100 mg administered with fat meal every 12 hrs for 8 days measured on day 1; assay type: ADME, organism-based; conditions: in vivo, read-out: beta t1/2 (converted)
[57] = Terminal elimination half life in human at 200 mg administered with fat meal every 12 hrs for 8 days measured on day 1; assay type: ADME, organism-based; conditions: in vivo, read-out: beta t1/2 (converted)
Homo sapiens [58] = species: Homo sapiens; assay: Protein binding in human plasma by equilibrium dialysis assay; conditions: read-out: PB

- half-life [1]: 4.1 h
- pIC50 [2]: 8.92
- pIC50 [3]: 7.38
- IC90 [3]: 168 nM
- half-life [4]: 1.5 h
- bioavailability [5]: 6%
- concentration at 12 h [6]: 160 ng/mL
- concentration at 12 h [7]: 230 ng/mL
- concentration at 12 h [8]: 340 ng/mL
- concentration at 12 h [9]: 130 ng/mL
- CL/F [10]: 217 mL/min
- CL/F [11]: 147 mL/min
- CL/F [12]: 367 mL/min
- CL/F [13]: 433 mL/min
- AUC at 12 h [14]: 5600 ng·h/mL
- AUC at 12 h [15]: 9600 ng·h/mL
- AUC at 8 h [16]: 4900 ng·h/mL
- Cmax [17]: 2600 ng/mL
- Tmax [18]: 3.75 h
- Tmax [19]: 4 h
- half-life [20]: 3.7 h
- half-life [21]: 4.4 h
- half-life [22]: 4 h
- bioavailability [23]: 6%
- AUC(0-inf) [40]: 3200 ng·h/mL
- AUC(0-inf) [41]: 5200 ng·h/mL
- Cmax [42]: 760 ng/mL
- CL/F [43]: 550 mL/min
- Cmax [44]: 1300 ng/mL
- Cmax [45]: 1300 ng/mL
- Tmax [46]: 1.5 h
- Tmax [47]: 2.5 h
- half-life [48]: 3.1 h
- half-life [49]: 2.9 h
- CL/F [50]: 317 mL/min
- CL/F [51]: 783 mL/min
- Cmax [52]: 740 ng/mL
- Tmax [53]: 4 h
- Tmax [54]: 3.75 h
- half-life [55]: 2.6 h
- half-life [56]: 3.1 h
- half-life [57]: 3.9 h
- fraction unbound (Homo sapiens [58]): 0.01
SMILES: Cn1c(=O)c(C(=O)NCCO)c(O)c2ncc(Cc3ccc(F)cc3)cc21 [GSK-364735]
- Activity (Homo sapiens [24]): 4%
- Activity (Homo sapiens [25]): 4%
- Activity (Homo sapiens [26]): Non-toxic
- Activity (Homo sapiens [27]): Non-toxic
- Activity (Homo sapiens [28]): Non-toxic
- Activity (Homo sapiens [29]): 13%
- Activity (Homo sapiens [30]): Non-toxic
- Activity (Homo sapiens [31]): 38%
- Activity (Homo sapiens [32]): 13%
- Activity (Homo sapiens [33]): 13%
- Activity (Homo sapiens [34]): Non-toxic
- Activity (Homo sapiens [35]): Non-toxic
- Activity (Homo sapiens [36]): Non-toxic
- Activity (Homo sapiens [37]): 63%
- Activity (Homo sapiens [38]): 13%
- Activity (Homo sapiens [39]): Non-toxic
